Measured values: patent US10172787B2, “Method of regulating a condition of mammalian keratinous tissue” (priority 2015, dated 2019)

Tested on: interleukin-18 (IL-18)
Assay: Skin sensitization potential: IL-18 production in HEK
Assay type: cell-based, human
Settings: 16 hours
Protocol: It is possible for a material to not be cytotoxic, and yet be unsafe due to provoking an allergic reaction upon skin contact. Typically, initial exposure to an allergen sensitizes the immune system, and following exposures cause an allergic response. […] Thus, IL-18 production in HEK was evaluated to determine sensitization potential.
Normal human adult epidermal keratinocytes (HEK) were cultured as described above for the cytoxicity evaluation. […] The cell lysates were collected, and IL-18 was quantified using Human IL-18 ELISA Kit (Catalog #7620, produced by MBL International Co., Woburn, Mass., USA). […] Fold changes of IL-18 levels between test articles and respective vehicle controls were calculated and compared to pPD (positive control). […]

## Nc1ccc(N)cc1 [benchmark sensitizer, para-phenylenediamine]
  IL18 Maximum fold (vs vehicle control): 7.8 fold)
